In ChEMBL document CHEMBL5465560, “Selectivity Literature for EUbOPEN Chemogenomic Library” (2024):

What was measured:
[1] = target: Serine/threonine-protein kinase/endoribonuclease IRE1 (Homo sapiens) (UniProt O75460); assay: Selectivity interaction (KinomeScan (DiscoverX)) EUB0000595a ERN1; conditions: at 10 µM
[2] = target: T1, MAP/microtubule affinity-regulating kinase 4 (Homo sapiens) (UniProt Q96L34); assay: Selectivity interaction (KinomeScan (DiscoverX)) EUB0000695a MARK4; conditions: at 100 nM
T1 sequence (whole entry): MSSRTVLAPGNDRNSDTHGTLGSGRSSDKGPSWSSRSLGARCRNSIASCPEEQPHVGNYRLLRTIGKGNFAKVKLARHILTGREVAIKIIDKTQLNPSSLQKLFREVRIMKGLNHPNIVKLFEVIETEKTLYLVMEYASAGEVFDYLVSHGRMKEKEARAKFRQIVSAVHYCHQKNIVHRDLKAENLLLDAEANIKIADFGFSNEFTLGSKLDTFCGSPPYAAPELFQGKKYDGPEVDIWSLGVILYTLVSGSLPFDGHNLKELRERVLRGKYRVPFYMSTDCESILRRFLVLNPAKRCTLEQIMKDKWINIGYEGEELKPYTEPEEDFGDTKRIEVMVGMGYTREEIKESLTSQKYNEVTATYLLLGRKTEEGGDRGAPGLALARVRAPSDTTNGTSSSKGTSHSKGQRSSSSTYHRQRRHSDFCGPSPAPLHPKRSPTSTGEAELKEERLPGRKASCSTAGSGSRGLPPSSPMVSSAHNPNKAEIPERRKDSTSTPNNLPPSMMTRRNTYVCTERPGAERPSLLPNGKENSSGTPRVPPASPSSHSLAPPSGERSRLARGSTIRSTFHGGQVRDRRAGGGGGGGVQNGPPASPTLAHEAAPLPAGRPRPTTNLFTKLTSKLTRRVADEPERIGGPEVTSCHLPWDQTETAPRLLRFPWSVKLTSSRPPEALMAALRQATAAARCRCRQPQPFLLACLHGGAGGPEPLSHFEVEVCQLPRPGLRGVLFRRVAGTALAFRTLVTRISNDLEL

[3] = target: Fibroblast growth factor receptor 2 (Homo sapiens) (UniProt P21802); assay: Selectivity interaction (KinomeScan (DiscoverX)) EUB0000666a FGFR2; conditions: at 10 µM
[4] = target: T2, Testis-specific serine/threonine-protein kinase 3 (Homo sapiens) (UniProt Q96PN8); assay: Selectivity interaction (KinomeScan (DiscoverX)) EUB0001049a TSSK3; conditions: at 1 µM
T2 sequence (whole entry): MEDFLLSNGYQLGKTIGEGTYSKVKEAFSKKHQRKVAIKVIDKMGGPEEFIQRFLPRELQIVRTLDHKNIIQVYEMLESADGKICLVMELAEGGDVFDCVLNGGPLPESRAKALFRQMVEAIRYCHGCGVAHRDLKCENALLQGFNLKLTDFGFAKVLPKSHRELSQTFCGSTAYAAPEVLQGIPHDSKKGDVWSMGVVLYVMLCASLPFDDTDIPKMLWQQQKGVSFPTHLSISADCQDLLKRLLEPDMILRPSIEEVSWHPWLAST

[5] = target: Microtubule-associated serine/threonine-protein kinase 3 (Homo sapiens) (UniProt O60307); assay: Selectivity interaction (ActivX KiNativ screen (ex vivo kinase selectivity in human PBMCs)) EUB0001619a MAST3; format: cell-based; conditions: PBMC, at 1 µM
[6] = target: Mitogen-activated protein kinase 14 (Homo sapiens, UniProt Q16539); assay: Selectivity interaction (ActivX KiNativ screen (ex vivo kinase selectivity in human PBMCs)) EUB0001619a MAPK14; format: cell-based; conditions: PBMC, at 1 µM
[7] = target: Ephrin type-A receptor 7 (Homo sapiens) (UniProt Q15375); assay: Selectivity interaction (Kinase panel (DSF assay)) EUB0001558a EPHA7
[8] = target: T3, Ribosomal protein S6 kinase alpha-1 (Homo sapiens, UniProt Q15418); assay: (§1) Selectivity interaction (ActivX KiNativ screen (kinase selectivity in THP-1 cell lysates)) EUB0000639a RPS6KA1; format: subcellular; conditions: lysate
[9] = target: T4, Serine/threonine-protein kinase ULK1 (Homo sapiens) (UniProt O75385); assay: Selectivity interaction (ActivX KiNativ screen (kinase selectivity in THP-1 cell lysates)) EUB0000639a ULK1; format: subcellular; conditions: lysate, at 1 µM
T4 sequence (whole entry): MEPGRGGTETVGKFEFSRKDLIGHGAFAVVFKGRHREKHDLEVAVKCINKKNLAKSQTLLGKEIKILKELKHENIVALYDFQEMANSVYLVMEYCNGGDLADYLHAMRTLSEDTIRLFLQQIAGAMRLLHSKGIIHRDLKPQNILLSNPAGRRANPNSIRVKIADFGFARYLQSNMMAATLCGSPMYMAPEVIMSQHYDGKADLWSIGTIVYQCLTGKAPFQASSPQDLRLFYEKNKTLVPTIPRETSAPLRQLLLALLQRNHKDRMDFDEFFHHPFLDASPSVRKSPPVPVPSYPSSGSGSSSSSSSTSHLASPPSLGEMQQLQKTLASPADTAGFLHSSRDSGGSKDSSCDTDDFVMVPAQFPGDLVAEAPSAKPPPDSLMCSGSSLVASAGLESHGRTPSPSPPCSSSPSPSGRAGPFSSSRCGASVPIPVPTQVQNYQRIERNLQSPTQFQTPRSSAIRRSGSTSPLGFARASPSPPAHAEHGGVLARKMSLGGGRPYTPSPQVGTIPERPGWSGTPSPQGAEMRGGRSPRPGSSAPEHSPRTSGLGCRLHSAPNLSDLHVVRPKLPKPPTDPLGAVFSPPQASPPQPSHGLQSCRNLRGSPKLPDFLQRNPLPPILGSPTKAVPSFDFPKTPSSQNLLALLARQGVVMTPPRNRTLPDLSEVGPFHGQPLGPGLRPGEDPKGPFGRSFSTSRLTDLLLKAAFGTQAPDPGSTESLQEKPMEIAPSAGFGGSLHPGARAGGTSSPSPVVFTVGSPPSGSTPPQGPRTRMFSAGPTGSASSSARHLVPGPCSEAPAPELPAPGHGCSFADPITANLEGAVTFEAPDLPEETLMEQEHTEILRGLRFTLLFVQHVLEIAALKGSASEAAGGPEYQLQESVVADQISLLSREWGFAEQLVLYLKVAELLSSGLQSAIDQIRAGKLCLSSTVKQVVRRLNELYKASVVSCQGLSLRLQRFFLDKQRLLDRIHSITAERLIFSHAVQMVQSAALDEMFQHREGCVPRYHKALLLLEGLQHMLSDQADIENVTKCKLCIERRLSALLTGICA

[10] = target: T3, Ribosomal protein S6 kinase alpha-1; assay: as §1; format: subcellular; conditions: lysate, at 0.01 µM

T3 sequence (Q15418 whole entry): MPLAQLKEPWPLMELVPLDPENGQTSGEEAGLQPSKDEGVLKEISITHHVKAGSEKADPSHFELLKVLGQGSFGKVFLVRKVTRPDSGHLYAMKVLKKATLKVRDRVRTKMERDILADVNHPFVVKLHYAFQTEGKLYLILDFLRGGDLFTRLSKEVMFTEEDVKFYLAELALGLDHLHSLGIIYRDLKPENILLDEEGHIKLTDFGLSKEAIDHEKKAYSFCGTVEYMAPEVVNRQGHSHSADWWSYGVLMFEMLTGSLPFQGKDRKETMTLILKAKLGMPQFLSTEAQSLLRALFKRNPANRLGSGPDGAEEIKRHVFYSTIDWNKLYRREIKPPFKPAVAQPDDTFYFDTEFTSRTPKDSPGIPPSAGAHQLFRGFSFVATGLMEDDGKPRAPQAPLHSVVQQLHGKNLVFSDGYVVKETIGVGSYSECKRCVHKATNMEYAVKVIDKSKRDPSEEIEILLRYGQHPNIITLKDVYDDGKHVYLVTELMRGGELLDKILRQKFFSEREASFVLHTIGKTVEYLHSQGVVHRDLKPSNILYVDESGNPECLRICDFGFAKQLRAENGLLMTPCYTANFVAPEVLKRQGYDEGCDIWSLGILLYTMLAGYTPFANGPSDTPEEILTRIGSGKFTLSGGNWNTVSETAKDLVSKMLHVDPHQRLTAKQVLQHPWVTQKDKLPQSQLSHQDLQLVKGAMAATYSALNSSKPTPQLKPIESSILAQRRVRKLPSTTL
Sequence of Ephrin type-A receptor 7 (Homo sapiens) (Q15375 28-998 limits assumed): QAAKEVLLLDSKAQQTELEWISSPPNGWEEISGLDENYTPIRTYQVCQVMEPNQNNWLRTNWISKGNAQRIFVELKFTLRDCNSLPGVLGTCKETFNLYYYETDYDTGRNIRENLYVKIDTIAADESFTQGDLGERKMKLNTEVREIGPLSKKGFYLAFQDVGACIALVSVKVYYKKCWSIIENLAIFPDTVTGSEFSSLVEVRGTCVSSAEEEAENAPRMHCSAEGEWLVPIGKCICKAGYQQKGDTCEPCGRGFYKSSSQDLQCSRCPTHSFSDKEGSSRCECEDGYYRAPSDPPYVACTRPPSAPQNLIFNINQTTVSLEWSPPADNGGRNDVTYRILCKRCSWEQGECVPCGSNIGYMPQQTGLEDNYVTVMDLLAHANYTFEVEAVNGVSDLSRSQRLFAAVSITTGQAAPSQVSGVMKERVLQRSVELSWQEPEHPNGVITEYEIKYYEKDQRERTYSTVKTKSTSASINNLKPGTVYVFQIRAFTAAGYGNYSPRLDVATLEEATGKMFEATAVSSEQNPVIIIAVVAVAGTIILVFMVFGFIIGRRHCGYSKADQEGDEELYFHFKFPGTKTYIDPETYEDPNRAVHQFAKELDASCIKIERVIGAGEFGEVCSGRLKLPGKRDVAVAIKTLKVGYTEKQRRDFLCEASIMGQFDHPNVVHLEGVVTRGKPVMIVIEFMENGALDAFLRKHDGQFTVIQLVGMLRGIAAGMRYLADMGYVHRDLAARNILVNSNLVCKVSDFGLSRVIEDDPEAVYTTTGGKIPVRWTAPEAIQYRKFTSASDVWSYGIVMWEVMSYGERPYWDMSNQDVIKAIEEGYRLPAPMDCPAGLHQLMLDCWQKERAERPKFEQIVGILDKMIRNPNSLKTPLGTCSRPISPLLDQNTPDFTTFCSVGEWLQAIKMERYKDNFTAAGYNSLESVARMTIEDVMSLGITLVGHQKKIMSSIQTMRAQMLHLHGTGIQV
Sequence of Mitogen-activated protein kinase 14 (Q16539 whole entry): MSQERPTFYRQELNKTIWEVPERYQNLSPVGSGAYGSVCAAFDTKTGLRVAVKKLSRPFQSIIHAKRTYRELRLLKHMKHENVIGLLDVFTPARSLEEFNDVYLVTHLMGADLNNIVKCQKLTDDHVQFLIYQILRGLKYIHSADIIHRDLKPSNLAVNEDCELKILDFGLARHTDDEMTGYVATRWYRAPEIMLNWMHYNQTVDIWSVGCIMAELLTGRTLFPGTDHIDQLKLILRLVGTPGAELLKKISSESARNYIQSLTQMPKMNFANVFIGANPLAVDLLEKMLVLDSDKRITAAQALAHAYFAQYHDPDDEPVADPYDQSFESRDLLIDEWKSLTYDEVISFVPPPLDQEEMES
Sequence of Microtubule-associated serine/threonine-protein kinase 3 (Homo sapiens) (O60307 whole entry): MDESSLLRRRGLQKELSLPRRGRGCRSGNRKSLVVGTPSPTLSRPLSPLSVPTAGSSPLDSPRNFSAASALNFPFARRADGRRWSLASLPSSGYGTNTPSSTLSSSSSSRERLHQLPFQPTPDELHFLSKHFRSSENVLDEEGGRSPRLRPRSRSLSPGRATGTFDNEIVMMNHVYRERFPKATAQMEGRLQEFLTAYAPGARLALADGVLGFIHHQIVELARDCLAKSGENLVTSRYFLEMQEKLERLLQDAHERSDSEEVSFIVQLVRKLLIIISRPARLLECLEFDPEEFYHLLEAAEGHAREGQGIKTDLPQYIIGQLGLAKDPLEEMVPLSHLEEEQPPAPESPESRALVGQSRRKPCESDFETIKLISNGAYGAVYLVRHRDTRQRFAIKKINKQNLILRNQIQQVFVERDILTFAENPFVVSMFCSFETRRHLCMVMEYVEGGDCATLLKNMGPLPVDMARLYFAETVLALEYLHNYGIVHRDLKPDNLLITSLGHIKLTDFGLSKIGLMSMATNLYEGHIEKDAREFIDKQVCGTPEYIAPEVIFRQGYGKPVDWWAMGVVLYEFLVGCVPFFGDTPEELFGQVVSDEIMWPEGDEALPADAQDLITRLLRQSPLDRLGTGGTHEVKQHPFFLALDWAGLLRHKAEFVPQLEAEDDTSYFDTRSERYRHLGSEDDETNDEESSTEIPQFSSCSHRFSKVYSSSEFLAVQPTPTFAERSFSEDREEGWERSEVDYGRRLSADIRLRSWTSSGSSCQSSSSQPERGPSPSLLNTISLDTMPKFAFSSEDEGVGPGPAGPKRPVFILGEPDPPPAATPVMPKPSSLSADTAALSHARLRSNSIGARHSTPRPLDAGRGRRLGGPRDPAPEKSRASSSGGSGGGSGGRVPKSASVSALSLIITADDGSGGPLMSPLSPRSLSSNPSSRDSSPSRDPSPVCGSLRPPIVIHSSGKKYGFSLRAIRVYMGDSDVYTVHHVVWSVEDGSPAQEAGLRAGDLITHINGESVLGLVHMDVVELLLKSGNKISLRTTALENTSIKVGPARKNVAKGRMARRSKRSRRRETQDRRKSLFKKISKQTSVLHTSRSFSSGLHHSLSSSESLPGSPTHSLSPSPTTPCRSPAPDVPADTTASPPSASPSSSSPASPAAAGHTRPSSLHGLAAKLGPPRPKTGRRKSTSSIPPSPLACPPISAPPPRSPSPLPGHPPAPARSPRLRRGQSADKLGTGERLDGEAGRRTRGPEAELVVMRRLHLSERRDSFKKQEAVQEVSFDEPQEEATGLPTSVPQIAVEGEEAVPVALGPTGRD
Sequence of Serine/threonine-protein kinase/endoribonuclease IRE1 (Homo sapiens) (O75460 19-977 limits assumed): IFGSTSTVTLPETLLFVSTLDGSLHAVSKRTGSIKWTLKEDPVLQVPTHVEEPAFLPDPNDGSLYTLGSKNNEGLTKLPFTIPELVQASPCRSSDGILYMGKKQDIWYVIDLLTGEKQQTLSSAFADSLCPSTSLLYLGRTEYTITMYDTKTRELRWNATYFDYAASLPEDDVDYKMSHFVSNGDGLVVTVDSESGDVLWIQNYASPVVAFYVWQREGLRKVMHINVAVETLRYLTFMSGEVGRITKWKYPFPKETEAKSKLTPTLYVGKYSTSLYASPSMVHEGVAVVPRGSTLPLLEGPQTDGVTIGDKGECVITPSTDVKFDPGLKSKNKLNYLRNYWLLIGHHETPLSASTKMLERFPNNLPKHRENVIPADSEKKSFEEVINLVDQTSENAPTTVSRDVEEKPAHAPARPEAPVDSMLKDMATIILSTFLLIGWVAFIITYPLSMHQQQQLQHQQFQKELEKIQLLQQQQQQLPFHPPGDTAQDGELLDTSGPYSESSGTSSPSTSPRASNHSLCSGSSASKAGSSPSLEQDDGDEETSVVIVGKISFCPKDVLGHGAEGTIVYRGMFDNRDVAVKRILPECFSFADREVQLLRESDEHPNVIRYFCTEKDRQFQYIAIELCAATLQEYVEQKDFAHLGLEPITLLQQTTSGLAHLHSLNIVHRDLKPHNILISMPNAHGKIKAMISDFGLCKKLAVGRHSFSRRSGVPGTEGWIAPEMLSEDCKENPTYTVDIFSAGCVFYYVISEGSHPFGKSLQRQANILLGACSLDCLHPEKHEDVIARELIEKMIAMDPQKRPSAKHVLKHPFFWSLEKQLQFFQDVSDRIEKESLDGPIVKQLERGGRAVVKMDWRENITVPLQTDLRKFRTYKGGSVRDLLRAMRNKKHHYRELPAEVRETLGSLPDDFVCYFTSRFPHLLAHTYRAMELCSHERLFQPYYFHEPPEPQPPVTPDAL

COCC(=O)NC/C=C/c1ccc2ncnc(Nc3ccc(Oc4ccc(C)nc4)c(C)c3)c2c1 [CP-724714]
% of control [1]: 82%

Cc1cc(F)c(C(=O)Nc2cccc(-c3nncn3C(C)C)n2)cc1-n1cnc(C2CC2)c1
% of control [2]: 100%

O=C(NOC[C@H](O)CO)c1ccc(F)c(F)c1Nc1ccc(I)cc1F
% of control [3]: 100%

COc1cc(Nc2nc(C)cc(-c3cnn4nc(OC)ccc34)n2)cc(C(F)(F)F)c1
% of control [4]: 100%

N#Cc1cccc(-c2c[nH]c3ncnc(N4CCOCC4)c23)c1
% of inhibition [5]: 1% | % of inhibition [6]: -2%

CC(C)(O)[C@H](F)CN1Cc2cc(NC(=O)c3cnn4cccnc34)c(N3CCOCC3)cc2C1=O
dTM [7]: -0.2 K

CC[C@@H]1[C@H](F)C(=O)N[C@@H]1COc1nccc2cc(C(N)=O)c(OC)cc12 [ZIMLOVISERTIB]
% of inhibition ([8]; at 0.01 µM): 18.6% | % of inhibition ([8]; at 0.04 µM): 18% | % of inhibition ([8]; at 0.2 µM): 14.6% | % of inhibition ([8]; at 1 µM): 14.7% | % of inhibition ([8]; at 5 µM): 7.3% | % of inhibition [9]: -53.5% | % of inhibition [10]: 25.4%
